Experimental data reported in patent publication US20240041042A1, “1-(PYRIDYL)-5-AZINYLPYRAZOLE DERIVATIVES, AND THEIR USE FOR CONTROL OF UNDESIRED PLANT GROWTH” (Bayer Aktiengesellschaft, priority 2020, published 2024).

How the values were obtained:
Assay type in all cases: in vivo
[1] = system: Amaranthus retroflexus (AMARE); assay: Post-emergence herbicidal action against AMARE
In short: (§1)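 Rates were 320 g/ha or below, applied as aqueous WP/EC spray with 0.5% additive (600 l/ha) onto one-leaf-stage plants. About 3 weeks later in the greenhouse, damage was scored visually against untreated plants on a 0–100% scale, where 100% means plants died.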

Viola tricolor (VIOTR) = assay: Pre-emergence herbicidal action against VIOTR
In short: (§2)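 Application rates ran to 320 g/ha or lower, with several dosages tested on the same weeds. The compound, as wettable powder or emulsion concentrate, is sprayed pre-emergence onto soil over sown seeds; greenhouse growth follows, and effect is rated visually after roughly 3 weeks.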

[2] = system: Matricaria inodora (MATIN); assay: Post-emergence herbicidal action against MATIN; conditions: dosage 320 g/ha
In short: as §1

[3] = system: Abutilon theophrasti (ABUTH); assay: Post-emergence herbicidal action against ABUTH; conditions: visual rating about 3 weeks after treatment vs untreated controls (100% = plants have died, 0% = like control plants)
In short: as §1

[4] = system: Echinochloa crus-galli (ECHCG); assay: Post-emergence herbicidal action against ECHCG
In short: as §1

[5] = system: Abutilon theophrasti (ABUTH); assay: Pre-emergence herbicidal action against ABUTH; conditions: 100% = plants have died
In short: as §2

Avena fatua (AVEFA) = assay: Post-emergence herbicidal action against AVEFA; conditions: visual rating about 3 weeks after treatment
In short: as §1

[6] = system: Pharbitis purpurea (PHBPU); assay: Post-emergence herbicidal action against PHBPU
In short: as §1

[7] = system: Echinochloa crus-galli (ECHCG); assay: Pre-emergence herbicidal action against ECHCG
In short: as §2

[8] = system: Alopecurus myosuroides (ALOMY); assay: Post-emergence herbicidal action against ALOMY; conditions: visual rating about 3 weeks after treatment vs untreated controls (100% = plants have died, 0% = like control plants)
In short: as §1

[9] = 80 g/ha, visual rating about 3 weeks after treatment vs untreated controls (100% = plants have died, 0% = like control plants)
[10] = 320 g/ha, visual rating about 3 weeks after treatment
[11] = Dosage column 320 g/ha (title prints 3200 g/ha), scored visually after about 3 weeks
[12] = 80 g/ha, scored visually after about 3 weeks vs untreated controls, 0% = like control plants

Row | SMILES | Post-emergence action against AMARE in % [1, 9] | Post-emergence action against AMARE in % [1, 10] | Pre-emergence action against VIOTR in % (Viola tricolor (VIOTR); 320 g/ha, Viola tricolor) | Pre-emergence action against VIOTR in % (Viola tricolor (VIOTR); dosage 80 g/ha) | Post-emergence action against MATIN in % [2] | Post-emergence action against ABUTH in % ([3]; 320 g/ha) | Post-emergence action against ECHCG in % ([4]; dosage 80 g/ha) | Post-emergence action against ECHCG in % ([4]; dosage 320 g/ha) | Pre-emergence action against ABUTH [5, 11] | Post-emergence action against AVEFA in % (Avena fatua (AVEFA); 320 g/ha) | Post-emergence action against PHBPU in % ([6]; dosage 80 g/ha) | Post-emergence action against PHBPU in % ([6]; dosage 320 g/ha) | Pre-emergence action against ECHCG in % ([7]; dosage 80 g/ha) | Pre-emergence action against ECHCG in % ([7]; dosage 320 g/ha) | Post-emergence action against ALOMY in % ([8]; 80 g/ha) | Post-emergence action against ALOMY in % ([8]; 320 g/ha) | Post-emergence action against AVEFA in % (Avena fatua (AVEFA); 80 g/ha) | Post-emergence action against ABUTH in % ([3]; 80 g/ha) | Pre-emergence action against ABUTH [5, 12]
1 | COC(=O)[C@H](C)COC(=O)COc1nn(-c2ccccn2)c(-c2cncc(F)c2)c1Cl [Example I-192] | 80% | 80% | 100% | 80% | 80% | 80% | 90% | 90% | 80% | 80% | 90% | 90% | 90% | 100% | 90% | 90% | – | – | –
2 | COC(=O)[C@@H](C)Oc1nn(-c2ncccc2F)c(-c2ccc(F)nc2)c1C1CC1 [Example I-307] | 80% | 90% | 100% | 100% | 80% | 90% | 90% | 90% | 80% | 90% | 80% | 90% | 100% | 100% | 100% | 100% | 90% | – | –
3 | COCCOC(=O)COc1nn(-c2ncccc2C)c(-c2cncc(F)c2)c1Br [Example I-212] | – | 80% | 100% | 100% | 80% | 80% | 90% | 90% | 80% | 90% | 90% | 100% | 100% | 100% | 90% | 90% | 80% | 80% | –
4 | COC(=O)C(C)COC(=O)[C@@H](C)Oc1nn(-c2ccccn2)c(-c2cncc(F)c2)c1Cl (stereo partly drawn) [Example I-198] | 80% | 90% | 100% | 90% | 80% | 80% | 80% | 80% | 90% | 80% | 80% | 90% | 90% | 100% | 80% | 80% | 80% | 80% | –
5 | CCOC(=O)[C@@H](C)Oc1nn(-c2ccccn2)c(-c2cncc(F)c2)c1Cl [Example I-184] | 80% | 80% | 100% | 100% | 80% | 90% | 90% | 90% | 90% | 90% | 90% | 90% | 90% | 100% | 80% | 90% | 80% | 80% | 90%
6 | COCCOC(=O)COc1nn(-c2ccccn2)c(-c2ccc(F)nc2)c1Br [Example I-96] | 80% | 80% | 90% | – | 80% | 90% | 90% | 90% | 80% | 90% | 90% | 90% | 80% | 100% | 90% | 90% | 80% | 90% | –
7 | COC(=O)[C@@H](C)Oc1nn(-c2ncccc2F)c(-c2ccc(F)nc2)c1I [Example I-341] | 80% | 80% | 100% | 100% | 90% | 90% | 100% | 100% | 90% | 80% | 90% | 100% | 80% | 100% | 80% | 100% | 80% | 80% | 90%
